Experimental data taken from article PMC12254355 (Nature Communications, 2025).
Ends that are not written are not given here.

Legend:
[1] = test system: E. coli AIC221; conditions: AIC221, 24 h
[2] = test system: E. coli AIC222 (polymyxin resistant; colistin-resistant strain); conditions: 24 h
[3] = test system: K. pneumoniae ATCC 13883; conditions: ATCC 13883, 24 h
[4] = test system: E. faecalis ATCC 700802 - VRE; conditions: ATCC 700802, 24 h
[5] = test system: E. faecium ATCC 700221 - VRE; conditions: ATCC 700221, 24 h
[6] = test system: HEK293T cells; conditions: for CC50 vs HEK293T cells (source data of Figure 4a): 24 h
[7] = test system: human red blood cells; conditions: pH 7.4
[8] = test system: A. baumannii ATCC 19606; conditions: ATCC 19606, 24 h
[9] = test system: E. coli ATCC 11775; conditions: ATCC 11775, 24 h
[10] = test system: P. aeruginosa PAO1; conditions: PAO1, 24 h
[11] = test system: P. aeruginosa PA14; conditions: PA14, 24 h
[12] = test system: S. aureus ATCC 12600; conditions: ATCC 12600, 24 h
[13] = test system: S. aureus ATCC BAA-1556 - MRSA; conditions: ATCC BAA-1556, 24 h
[14] = test system: 11 clinically relevant pathogens; assay type: cell-based

Row | Sequence | Minimal Inhibitory Concentration, E. coli AIC221 (-) [1] [µmol/L] | Minimal Inhibitory Concentration, E. coli AIC222 (-) [2] [µmol/L] | Minimal Inhibitory Concentration, K. pneumoniae ATCC 13883 (-) [3] [µmol/L] | Minimal Inhibitory Concentration, E. faecalis ATCC 700802 - VRE (+) [4] [µmol/L] | Minimal Inhibitory Concentration, E. faecium ATCC 700221 - VRE (+) [5] [µmol/L] | CC50 vs HEK293T cells [6] [µM] | SIcytotoxicity [6] | HC50 [7] | Minimal Inhibitory Concentration, A. baumannii ATCC 19606 (-) [8] [µmol/L] | Minimal Inhibitory Concentration, E. coli ATCC 11775 (-) [9] [µmol/L] | Minimal Inhibitory Concentration, P. aeruginosa PAO1 (-) [10] [µmol/L] | Minimal Inhibitory Concentration, P. aeruginosa PA14 (-) [11] [µmol/L] | Minimal Inhibitory Concentration, S. aureus ATCC 12600 (+) [12] [µmol/L] | Minimal Inhibitory Concentration, S. aureus ATCC BAA-1556 - MRSA (+) [13] [µmol/L] | CC50 vs HEK293T cells (source data of Figure 4a) [6] [µM] | Antimicrobial activity against the pathogen panel (in words) [14]
1 | KFLARLVFRKFILL [UniprotKB-13] | 8 | 32 | 64 | 32 | 2 | 27 | 13.4 | 455.9 |  |  |  |  |  |  |  | 
2 | KFSVFSKILRSIAKVF [Arachnoserver-18] | 4 |  |  |  | 8 |  | 3.1 | 53.5 | 8 | 4 | 32 | 16 | 16 | 16 | 12.34 | 
3 | KLLKIGLKSFARVLKKVL [Arachnoserver-1] | 4 |  | 8 |  | 16 |  | 6.6 | 82.7 | 16 | 8 |  | 8 | 16 | 16 | 26.22 | 
4 | KLSGISKVLRAIAKFFK [Arachnoserver-28] | 32 |  | 32 |  | 8 | 6 | 0.8 | 38.2 | 32 | 64 | 32 | 8 | 32 | 32 | 6.347 | 
5 | KRLRAKMLNSKFIKLIKR [Conoserver-1] | 16 |  |  |  | 32 |  | 5.2 | 1.085e+083 |  |  | 32 | 32 |  | 32 |  | 
6 | LLHFSIWRSTVLRK [ISOB-4] |  |  |  | 64 | 16 |  | 9.7 | 24308.0 |  |  |  |  |  |  |  | 
7 | RGLAKLLKIGLKSFARVLKK [Arachnoserver-12] | 4 |  | 32 |  | 8 | 8 | 2.1 | 40.1 | 32 | 16 | 16 | 8 | 64 | 64 | 8.419 | 
8 | SKKQIRLYLLKYYGKKLFKKRPK [Arachnoserver-19] | 32 | 32 |  |  | 8 |  | 2.1 | 163.3 |  |  | 16 | 16 |  |  | 16.68 | 
9 | WLGSALKIGAKLL [UniprotKB-2] |  |  |  |  |  | 8 |  | 5.529e+042 |  |  |  |  |  |  | 8.278 | no activity
